Assay results published in US11202815B2, “Composition for preventing, treating or improving prostate disease containing acanthopanax sessiliflorus, phragmites rhizome, and pinus densiflora extracts as active ingredient” (GENOME & MEDICINE CO., LTD., priority 2017, dated 2021).

System: 5α-reductase type 2 (SRD5A2)
Test: Western blotting of 5α-reductase type 2 (SRD5A2) protein expression level
Type: cell-based
Settings: 0.40 mM, cultured for 24 hours, FIG. 8
Method: 5α-reductase had total three types of subtypes (types 1, 2 and 3), in which types 1 and 3 have been studied for diseases such as male hair loss or acne and type 2 was directly associated with benign prostatic hyperplasia.
As a result, in Example 6, a 5α-reductase type 2 (SRD5A2) protein expression level was analyzed by Western blotting to confirm 5α-reductase inhibitory activity.
Specifically, the cells were divided at a concentration of 2.0×10^5 cell/well and treated with 100 μg/ml of the Acanthopanax sessiliflorus extract, 600 μg/ml of the Pinus densiflora extract, 600 μg/ml of the Phragmites rhizome extract, or 350 μg/ml of the complex extract (Extract 4) obtained by mixing the extracts at 4:2:1 in a PRMI1640 medium containing 1% fetal bovine serum (FBS), and then cultured for 24 hours.
Finasteride, which has been sold as a 5α-reductase inhibitor on the market, was used as a positive control.
Then, the cultured cells were lysed, filtered with a 0.45 μm mesh, and subjected to Western blotting according to a procedure shown in FIG. 7.
Specifically, a primary antibody (Anti-SRD5A2, Sigma) was diluted to 1:200 and treated, and a secondary antibody (m-IgGP-HRP, Santa Cruz) was diluted to 1:3000 and treated, and then the expression levels of 5α-reductase type 2 according to treatment of each extract and each compound were confirmed.

O=C(O)/C=C/c1ccc(O)cc1 [p-coumaric acid]
expression levels of 5α-reductase type 2: significantly reduced

COc1cc([C@@H]2OC[C@@H]3[C@H]2CO[C@H]3c2cc(OC)c(O[C@@H]3O[C@H](CO)[C@@H](O)[C@H](O)[C@H]3O)c(OC)c2)cc(OC)c1O[C@@H]1O[C@H](CO)[C@@H](O)[C@H](O)[C@H]1O [acanthoside D]
expression levels of 5α-reductase type 2: significantly reduced
